Structures can show the parent of a compound that is named as a salt. Values belong to the compound of their own block, whether it stands above or below them.
Key:
[1] = system: h-Tel quadruplex (Q) DNA, 5'-biotin-d[AG3(T2AG3)3] (DNA, G4) AGGGTTAGGGTTAGGGTTAGGG; test: surface plasmon resonance; conditions: 200 mM KCl; 10 mM HEPES, 3 mM EDTA, 0.01% P20, pH 7.4
[2] = target: T1, human recombinant β2 adrenergic receptor (Homo sapiens, UniProt P07550); test: β2-adrenergic receptor binding assay (CHO expressing cells)
T1 construct: expressed in transfected cells; host or cells: CHO
Description: (§1) For hERG study, HEK293 cells were cultured (1–7 days) in DMEM/GlutaMax-1 + 10% FBS and were plated on collagen-coated dishes (about 2×10^4 cells/dish). The cell was held at -80 mV. A 50-millisecond pulse to -40 mV was delivered to measure the leaking currents, which were subtracted from the tail currents online. […] This paradigm was delivered once every 5 seconds to monitor the current amplitude. After the current amplitude stabilized, the test compound was delivered to the extracellular medium by a rapid solution changer perfusion system. During perfusion, the cell was repetitively stimulated with the protocol described above, and the current amplitude was continuously monitored. Data were acquired and analyzed by using pClamp (Axon Instruments), and Excel (Microsoft), and are reported as mean and individual values. The degree of inhibition (%) was obtained by measuring the tail current amplitude before and after drug superfusion (the difference current was normalized to control and multiplied by 100 to obtain the percent of inhibition). […] The concentration-response relationship of each compound was constructed from the percentage reductions of current amplitude by sequential concentrations. β2-adrenergic receptor CHO expressing cells were used for the receptor inhibition assay as described. The results are expressed as a percent of inhibition of control specific binding (100 - (measured specific binding/control specific binding) × 100)) obtained in the presence of the test compounds. The specific ligand binding to the receptors is defined as the difference between the total binding and the nonspecific binding determined in the presence of an excess of unlabelled ligand. All the in-vivo experiments were carried out at the Regina Elena Cancer Institute.
Inhibition of receptor was reported as inhibition of control specific binding (100 - (measured specific binding/control specific binding) × 100) obtained in the presence of the test compounds.

[3] = system: h-Tel (anti-parallel) quadruplex; test: CD thermal unfolding of h-Tel quadruplex; format: binding, human
Description: CD spectra were recorded on an Applied Photophysics Pi-Star-180 spectrophotometer (Applied Photophysics Ltd, Surrey, UK). The optical system was configured with a 75 W Xe lamp, circular light polarizer and end-mounted photomultiplier. The instrument had previously been calibrated with (D)-camphorsulfonic acid. Temperature was regulated using a Neslab RTE-300 circulating programmable water bath (Neslab Inc). CD spectra were recorded at 298 K in a 10 mm path length cell over a wavelength range of 215–345 nm in steps of either 1 0r 2 nm, with 3 nm entrance/exit slit widths: the number of counts was set to 10,000 with adaptive sampling set to 500,000. The spectra were corrected by subtracting the spectrum of the same buffer solution of 100 mM potassium chloride and 10 mM potassium phosphate at pH 7.0. Annealing and melting profiles were recorded using a thermoelectric temperature controller (Melcor) on 4 μM DNA samples with and without 3.5 mol.equiv. of ligands using 0.5 K temperature increments and a cooling or heating rate of 0.2 K/min over the temperature range 298-368 K.
This analysis was extended to examine the effects of ligand binding on thermal stability by measuring the unfolding curves at 290 nm of the complexes formed in K^+ solution, corresponding to the CD spectra shown in Figure 4a. Monitoring the thermal unfolding transition for h-Tel produces a sigmoidal unfolding curve with a transition mid-point Tm value of 72 ± 3°C (Figure 4c). All three ligands show significant effects in enhancing the stability of the quadruplex by shifting the Tm values to higher temperatures (∆Tm ~ 15-19°C compared to h-Tel without bound ligands) (Table 1).

[4] = system: BJ-EHLT fibroblasts; test: Proliferation assay, transformed fibroblasts; format: cell-based, human; conditions: 0.5 μM, culture day 2 to 8
Description: (§2) BJ fibroblasts expressing hTERT (BJ-hTERT) or hTERT and SV40 early region (BJ-EHLT), were obtained as previously reported. Cells were grown in Dulbecco Modified Eagle Medium (D-MEM, Invitrogen Carlsbad, CA, USA) supplemented with 10% fetal calf serum, 2 mM L-glutamin and antibiotics.
(§3) 5 × 10^4 cells were seeded in 60-mm Petri plates (Nunc, MasciaBrunelli, Milano, Italy) and 24 h after plating, 0.5 μM of freshly dissolved compound was added to the culture medium. Cell counts (Coulter Counter, Kontron Instruments, Milano, Italy) and viability (trypan blue dye exclusion) were determined daily, from day 2 to day 8 of culture.

[5] = system: BJ-hTERT fibroblasts; test: Proliferation assay, normal telomerised fibroblasts; format: cell-based, human; conditions: 0.5 μM, culture day 2 to 8
Description: as §2, §3

[6] = system: γH2AX in BJ-EHLT fibroblasts; test: Immunofluorescence for γH2AX (DNA damage response); format: cell-based, human; conditions: 0.5 μM, 24 hrs
Description: (§4) Cells were fixed in 2% formaldehyde and permeabilized in 0.25% Triton X100 in PBS for 5 min at room temperature. For immunolabeling, cells were incubated with primary antibody, then washed in PBS and incubated with the secondary antibodies. The following primary antibodies were used: pAb and mAb anti-TRF1 (Abcam Ltd.; Cambridge UK); mAb (Upstate, Lake Placid, NY) and pAb anti-γH2AX (Abcam). The following secondary antibody were used: TRITC conjugated Goat anti Rabbit, FITC conjugated Goat anti Mouse (Jackson ImmunoResearch Europe Ltd., Suffolk, UK). Fluorescence signals were recorded by using a Leica DMIRE2 microscope equipped with a Leica DFC 350FX camera and elaborated by a Leica FW4000 deconvolution software (Leica, Solms, Germany). This system permits to focus single planes inside the cell generating 3D high-resolution images. For quantitative analysis of γH2AX positivity, 200 cells on triplicate slices were scored. For TIF’s analysis, in each nucleus a single plane was analyzed and at least 50 nuclei per sample were scored.

[7] = system: Telomere dysfunction Induced Foci in BJ-EHLT fibroblasts; test: TIF analysis (γH2AX/TRF1 co-localization); format: cell-based, human; conditions: 24 hrs
Description: as §4

[8] = system: telomere aberrations in BJ-EHLT fibroblasts; test: Telomere FISH on metaphase spreads; format: cell-based, human; conditions: 0.5 μM, 72 hrs
Description: For metaphase chromosome preparation cells were treated with demecolcine (Sigma, Milan, Italy) 0.1 mg/ml for 4 h and then harvested and washed in 75 mM KCl for 5 min at 37°C. After centrifugation cells were fixed in MeOH/acetic acid 3:1 overnight and then spread on slides. Hybridization with rhodamine-coupled PNA was performed as described. For each sample 20 metaphases per slice on triplicate were scored. Images of the metaphases were captured with a 100 × objective.

[9] = system: NCI60 panel; test: NCI60 panel growth inhibition; format: cell-based, human
[10] = system: h-Tel 5'-d[AGGG(TTAGGG)3]-3' (DNA, G4) AGGGTTAGGGTTAGGGTTAGGG; test: CD melting at 290 nm; conditions: 110 mM K+ (100 mM KCl, potassium phosphate); 10 mM potassium phosphate, pH 7.0; 4 μM DNA, 3.5 mol equiv. ligand; Tm 89 ± 3
[11] = system: duplex (D) DNA hairpin, 5'-biotin-CGA3T3C(CT)2GA3T3CG (DNA, hairpin) CGAAATTTCCTCTGAAATTTCG; test: surface plasmon resonance; conditions: 200 mM KCl; 10 mM HEPES, 3 mM EDTA, 0.01% P20, pH 7.4
[12] = system: h-Tel quadruplex DNA 5′-d[AGGG(TTAGGG)3]-3′; test: Surface plasmon resonance, quadruplex DNA; conditions: for Surface plasmon resonance K, Quadruplex (Q) DNA: 10 mM HEPES, 200 mM KCl, 3 mM EDTA, 0.01% P20, pH 7.4, equilibrium binding constant
Description: Oligonucleotides 5′-biotin-d[AG3(T2AG3)3] quadruplex and 5′-biotin-CGA3T3C(CT)2GA3T3CG were purchased from Midland Certified Reagent Company (Midland, TX).
In the present work these measurements were repeated comparing ligand binding to the same h-Tel sequence but with a different duplex sequence 5′-d[CGA3T3C(CT)2GA3T3CG]-3′ as comparator.

[13] = system: h-Tel 5'-d[AGGG(TTAGGG)3]-3' (DNA, G4) AGGGTTAGGGTTAGGGTTAGGG; test: CD spectroscopy, induced anti-parallel structure; conditions: no significant K+; 298 K; 3.5 molar equivalents of ligand; band at 290 nm emerges
[14] = target: T2, hERG (Homo sapiens, UniProt Q12809); test: hERG tail current inhibition, patch clamp assay; format: cell-based; conditions: human, HEK293 cells (hERG study), 10 μM, HEK293 cells, read-out: hERG % inhib. (10 μM)
T2 construct: expressed in transfected cells; host or cells: HEK293
Description: as §1, with “Institute. All procedures involving animals and care were performed in compliance with our institutional animal care guidelines and with international directives (directive 2010/63/EU of the European parliament and of the council; Guide for the Care and Use of Laboratory Animals, United States National Research Council, 2011).” for “Institute.”

T1 sequence (P07550 whole entry): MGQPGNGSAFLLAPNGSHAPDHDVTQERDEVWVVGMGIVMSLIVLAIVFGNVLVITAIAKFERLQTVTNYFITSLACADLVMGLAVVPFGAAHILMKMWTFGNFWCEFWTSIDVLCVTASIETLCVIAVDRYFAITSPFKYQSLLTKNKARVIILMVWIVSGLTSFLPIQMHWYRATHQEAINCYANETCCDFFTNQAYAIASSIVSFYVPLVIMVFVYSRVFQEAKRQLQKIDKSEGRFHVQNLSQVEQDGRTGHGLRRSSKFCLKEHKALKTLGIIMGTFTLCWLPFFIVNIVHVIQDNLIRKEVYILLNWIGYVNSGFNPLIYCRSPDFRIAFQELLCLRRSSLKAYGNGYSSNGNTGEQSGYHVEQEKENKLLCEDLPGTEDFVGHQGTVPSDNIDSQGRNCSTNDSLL
T2 sequence (Q12809 whole entry): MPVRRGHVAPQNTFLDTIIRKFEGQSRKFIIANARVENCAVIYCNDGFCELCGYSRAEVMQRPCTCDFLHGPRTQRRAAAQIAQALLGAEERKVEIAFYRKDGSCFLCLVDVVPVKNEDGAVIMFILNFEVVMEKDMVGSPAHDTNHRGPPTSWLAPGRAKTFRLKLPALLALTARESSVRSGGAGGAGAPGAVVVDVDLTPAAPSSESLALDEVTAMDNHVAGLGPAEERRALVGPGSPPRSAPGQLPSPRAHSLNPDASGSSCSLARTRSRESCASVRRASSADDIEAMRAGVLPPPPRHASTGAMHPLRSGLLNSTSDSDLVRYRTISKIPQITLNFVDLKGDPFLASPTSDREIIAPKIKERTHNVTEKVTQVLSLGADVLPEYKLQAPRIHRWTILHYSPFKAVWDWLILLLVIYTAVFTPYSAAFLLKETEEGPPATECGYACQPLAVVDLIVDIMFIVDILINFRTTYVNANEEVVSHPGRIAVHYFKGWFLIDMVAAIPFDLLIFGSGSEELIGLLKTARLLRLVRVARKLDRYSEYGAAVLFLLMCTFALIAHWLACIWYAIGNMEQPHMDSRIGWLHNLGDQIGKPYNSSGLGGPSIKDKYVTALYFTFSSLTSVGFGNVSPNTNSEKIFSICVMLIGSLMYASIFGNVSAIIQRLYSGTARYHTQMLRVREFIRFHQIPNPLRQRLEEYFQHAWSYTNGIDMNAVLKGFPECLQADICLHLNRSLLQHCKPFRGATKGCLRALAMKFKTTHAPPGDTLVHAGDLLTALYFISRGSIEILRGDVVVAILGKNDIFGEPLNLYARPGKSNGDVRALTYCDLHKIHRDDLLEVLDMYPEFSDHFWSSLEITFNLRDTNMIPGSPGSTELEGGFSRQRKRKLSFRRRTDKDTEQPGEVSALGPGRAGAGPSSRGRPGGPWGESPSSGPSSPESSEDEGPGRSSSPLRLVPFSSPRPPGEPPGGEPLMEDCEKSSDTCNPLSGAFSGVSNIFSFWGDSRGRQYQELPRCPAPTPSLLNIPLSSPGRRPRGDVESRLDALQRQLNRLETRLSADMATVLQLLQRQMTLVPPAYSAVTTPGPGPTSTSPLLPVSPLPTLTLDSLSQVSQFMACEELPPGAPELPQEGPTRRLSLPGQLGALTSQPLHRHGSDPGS

K [1]: 600000 M⁻¹
Structure (SMILES): CC[n+]1c2c3c(cc(C)cc3c3cc(F)ccc31)N(C)c1ccc(F)cc1-2

melting point: > 250 °C (dec.)
Structure (SMILES): CC[n+]1c2c3c(cc(C)cc3c3cc(F)ccc31)N(C)c1ccc(F)cc1-2 (as salt: sulfate) [Compound 8, 13-Ethyl-3,11-difluoro-6,8-dimethyl-8H-quino[4,3,2-kl]acridinium trifluoromethosulfate]

inhibition at 10 µM ([2]; 10 μM, inhibition of control specific binding, CHO cells, read-out: B2 adrenergic % inhib. (10 μM)): 24% | decay of β2-adrenergic receptor inhibition compared to 1 ([2]; comparing 1 to the compound): 75% | ∆Tm [10]: 19 °C | K [1]: 1.5e+07 M⁻¹ | K [11]: 400000 M⁻¹ | binding [13]: yes
Structure (SMILES): CC(=O)Nc1ccc2c3cccc4c3c([n+](C)c2c1)-c1ccccc1N4C [Compound 2, 2-Acetylamino-8,13-dimethyl-8H-quino[4,3,2-kl]-acridinium iodide]
CD study thermal stability ∆Tm ([3]; compared to h-Tel without bound ligand (Tm 70 ± 3)): 19 °C | CD study thermal stability Tm ([3]; h-Tel 4 μM with 3.5 mol.equiv. ligand, K+ solution, unfolding at 290 nm): 89 ± 3 °C | day of maximum effect on cell proliferation [4]: 6 days | inhibition of cell proliferation in normal telomerized fibroblasts [5]: did not induce inhibition of cell proliferation | percentage of cells positive for γH2AX [6]: quite similar to compound 1 | percentage of TIF-positive cells ([7]; cells with more than four γH2AX/TRF1 co-localizations): comparable levels with respect to 1 | number of TIFs per nucleus ([7]; mean): ca. eight | telomere aberrations (telomere doublets, sister telomere fusions) [8]: quantitatively similar to the lead compound | GI50 ([9]; Homo sapiens, NCI data, read-out: Mean GI50 value from the NCI60 panel): 12 µM | effect on cell proliferation in a panel of different histotype tumor cell lines ([9]; several human cancer cell lines): maintained an anti-proliferative effect | Surface plasmon resonance K, Quadruplex (Q) DNA [12]: 1.5e+07 M⁻¹

Structure (SMILES): CC[n+]1c2c3c(cc(C)cc3c3cc(F)ccc31)N(C)c1ccc(F)cc1-2 [Compound 8, 13-Ethyl-3,11-difluoro-6,8-dimethyl-8H-quino[4,3,2-kl]acridinium trifluoromethosulfate]
inhibition at 10 µM [14]: 18% | Surface plasmon resonance K, Quadruplex (Q) DNA [12]: 600000 M⁻¹ | fold reduction in on-target effect against h-Tel DNA sequence (SPR) relative to 1 ([12]; relative to compound 1): > 10 fold

From article PMC3849007 (Journal of Experimental & Clinical Cancer Research : CR, 2013)
